In publication PMC5698418 (Nature Communications, 2017):
Counter-ions that a name gives are not always drawn. Like-named read-outs stand apart in the source and are kept apart here.

System: BDNF-induced nuclear Arc expression in primary cortical neurons
Experiment: Chemogenomic screen: high-content image-based assay of BDNF-induced nuclear Arc expression (96-well)
Type: cell-based, mouse
Summary of the method: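 DIV13 mouse primary cortical neurons (30,000 cells/well) are treated with compound at 16.7 µM and BDNF, in three biological replicates. Arc and acetyl-H3K9 are immunostained and imaged at ×40, and nuclear Arc signal is quantified automatically using acetyl-H3K9 as the nuclear mask.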

[1] = BDNF-induced nuclear Arc expression, primary cortical neurons, chemogenomic screen
[2] = nuclear Arc-positive cells relative to DMSO + BDNF control, negative values = decrease
[3] = chemogenomic (SMART) screen, BDNF-induced nuclear Arc expression, primary cortical neurons, BDNF control 19.5

SMILES | Fold-change — Normalized to DMSO control (BDNF) [2] | Percentage of cell with nuclear Arc immunostaining above 2σ threshold [3] | other results
CN(C)CCCN1c2ccccc2Sc2ccc(Cl)cc21 [Chlorpromazine] |  |  | Percentage of cell with nuclear Arc immunostaining above 2σ threshold [1]: 0.0%
C1CCN2C[C@@H]3C[C@@H](CN4CCCC[C@@H]34)[C@H]2C1 [Sparteine] | 1.3 fold |  | Percentage of cell with nuclear Arc immunostaining above 2σ threshold: 25.6%
O=C1[C@@H]2[C@H]3CC[C@H](C3)[C@@H]2C(=O)N1C[C@@H]1CCCC[C@H]1CN1CCN(c2nsc3ccccc23)CC1 [Lurasidone] | 2.0 fold | 39.0% | 
COC1=CC(=O)O[C@@H](/C=C/c2ccc3c(c2)OCO3)C1 [Kavahin] | 1.9 fold |  | Percentage of cell with nuclear Arc immunostaining above 2σ threshold: 36.5%
OCCOCCN1CCN(C2=Nc3ccccc3Sc3ccccc32)CC1 [Quetiapine fumarate] | 1.3 fold | 25.9% | 
O=C(O)[C@H]1O[C@@H](Oc2cc3oc(-c4ccccc4)cc(=O)c3c(O)c2O)[C@H](O)[C@@H](O)[C@@H]1O [Baicalin] | 1.8 fold | 34.6% | 
CCN(C)C(=O)Oc1cccc([C@H](C)N(C)C)c1 [Rivastigmine] | 1.7 fold |  | Percentage of cell with nuclear Arc immunostaining above 2σ threshold: 33.7%
Cc1ccc2c(c1)c1c(n2CCc2ccc(C)nc2)CCN(C)C1 [Latrepirdine] | 1.8 fold | 34.3% | 
CC(C)CNC(=O)/C=C/C=C/c1ccc2c(c1)OCO2 [Piperlonguminine] | 1.2 fold | 23.0% | 
C[C@@](Cc1ccc(O)c(O)c1)(NN)C(=O)O [Carbidopa] | 1.9 fold | 36.1% | 
N[C@@H]1C[C@H]1c1ccccc1 [Tranylcypromine hydrochloride] | 1.4 fold | 26.6% | 
CCc1c(C)[nH]c2c1C(=O)C(CN1CCOCC1)CC2 (stereo not drawn) [Molindone] | 1.9 fold | 36.4% | 
CCOC(=O)C1=C[C@]2(CC)CCCN3CCc4c(n1c1ccccc41)[C@@H]32 [Vinpocetine] |  | 12.5% | 
Cc1ccsc1C(=CCCN1CCC[C@@H](C(=O)O)C1)c1sccc1C [Tiagabine] |  |  | Percentage of cell with nuclear Arc immunostaining above 2σ threshold [1]: 7.4%
CC(C)(C)OC(=O)c1ncn2c1[C@@H]1CCCN1C(=O)c1c(Br)cccc1-2 [Bretazenil] | 2.0 fold |  | Percentage of cell with nuclear Arc immunostaining above 2σ threshold: 39.0%
O=C(NCCN1CCOCC1)c1ccc(Cl)cc1 [Moclobemide] |  |  | Percentage of cell with nuclear Arc immunostaining above 2σ threshold [1]: 8.9%
Cl.c1ccc2c(c1)OCC(C1=NCCN1)O2 (stereo not drawn) [Idazoxan hydrochloride, RX 781094] | 1.2 fold | 24.1% | 
COc1cc(C(C)=O)ccc1OCCCN1CCC(c2noc3cc(F)ccc23)CC1 [Iloperidone] |  |  | Percentage of cell with nuclear Arc immunostaining above 2σ threshold [1]: 8.3%
Nc1ccn([C@@H]2O[C@H](CO)[C@@H](O)[C@H]2O)c(=O)n1 [Cytidine] | 1.8 fold | 34.8% | 
Oc1noc2c1CCNC2 [Gaboxadol] |  |  | Percentage of cell with nuclear Arc immunostaining above 2σ threshold: 13.6%
OCCN1CCN(CCCN2c3ccccc3Sc3ccc(C(F)(F)F)cc32)CC1 [Fluphenazine] |  |  | Percentage of cell with nuclear Arc immunostaining above 2σ threshold [1]: 0.3%
Cc1cc(C(=O)NNCc2ccccc2)no1 [Isocarboxazid] | 1.1 fold | 21.2% | 
COc1cc2c(NC3CCN(C4CCCCC4)CC3)nc(N3CCCN(C(C)C)CC3)nc2cc1OCCCN1CCCCC1 [UNC 0646] |  |  | Percentage of cell with nuclear Arc immunostaining above 2σ threshold [1]: 5.2%; Fold-change — Normalized to DMSO control (BDNF) (nuclear Arc-positive cells relative to DMSO control (BDNF), negative = decrease): -3.7 fold
